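Protocol summary: plate cells (96-well), add compound at 5 concentrations, incubate 48 h, interpolate endpoints linearly. GI50 is the concentration that inhibits growth by half.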 The source made the active and inactive calls. Cut-off read from the data, not from the text of the source: active = GI50 up to about 1.1 µM and inactive = higher.
Assays:
Assay in all cases: growth of human tumour cells (NCI), 48 h
SK-OV-3 = test system: SK-OV-3
HCT-116 = test system: HCT-116
MDA-N = test system: MDA-N
NCI-H226 = test system: NCI-H226
HT-29 = test system: HT-29
A549 = test system: A549
RPMI-8226 = test system: RPMI-8226
U-251 = test system: U-251
COLO 205 = test system: COLO 205
SF-268 = test system: SF-268
HOP-62 = test system: HOP-62
Malme-3M = test system: Malme-3M
SNB-19 = test system: SNB-19
CCRF-CEM = test system: CCRF-CEM
NCI/ADR-RES = test system: NCI/ADR-RES
NCI-H460 = test system: NCI-H460
UACC-62 = test system: UACC-62
UO-31 = test system: UO-31
NCI-H522 = test system: NCI-H522
BT-549 = test system: BT-549
MDA-MB-435 = test system: MDA-MB-435
SF-295 = test system: SF-295
UACC-257 = test system: UACC-257
KM12 = test system: KM12
SK-MEL-2 = test system: SK-MEL-2
M14 = test system: M14
RXF 393 = test system: RXF 393
786-0 = test system: 786-0
HCC 2998 = test system: HCC 2998
HCT-15 = test system: HCT-15
LOX IMVI = test system: LOX IMVI
NCI-H23 = test system: NCI-H23
TK-10 = test system: TK-10
SF-539 = test system: SF-539
MDA-MB-231 = test system: MDA-MB-231
HOP-92 = test system: HOP-92
A498 = test system: A498
EKVX = test system: EKVX
OVCAR-8 = test system: OVCAR-8
SW-620 = test system: SW-620
Hs-578T = test system: Hs-578T
PC-3 = test system: PC-3
MCF7 = test system: MCF7
SN12C = test system: SN12C
ACHN = test system: ACHN
SK-MEL-5 = test system: SK-MEL-5
SK-MEL-28 = test system: SK-MEL-28
HL-60 = test system: HL-60
OVCAR-4 = test system: OVCAR-4
MOLT-4 = test system: MOLT-4
IGROV-1 = test system: IGROV-1
OVCAR-3 = test system: OVCAR-3
SR = test system: SR
T47D = test system: T47D
DU-145 = test system: DU-145
CAKI-1 = test system: CAKI-1
OVCAR-5 = test system: OVCAR-5
SNB-75 = test system: SNB-75
K562 = test system: K562

## Oc1c(Cl)c(Cl)c(O)c2c1CCCC2
SK-OV-3
  GI50: 14.2 µM (inactive)
HCT-116
  GI50: 1.51 µM (inactive)
MDA-N
  GI50: 14.3 µM (inactive)
NCI-H226
  GI50: 1.88 µM (inactive)
HT-29
  GI50: 19.1 µM (inactive)
A549
  GI50: 21 µM (inactive)
RPMI-8226
  GI50: 2.72 µM (inactive)
U-251
  GI50: 17.5 µM (inactive)
COLO 205
  GI50: 1.83 µM (inactive)
SF-268
  GI50: 11.6 µM (inactive)
HOP-62
  GI50: 25.4 µM (inactive)
Malme-3M
  GI50: 2.84 µM (inactive)
SNB-19
  GI50: 16 µM (inactive)
CCRF-CEM
  GI50: 2.08 µM (inactive)
NCI/ADR-RES
  GI50: 15.5 µM (inactive)
NCI-H460
  GI50: 15.1 µM (inactive)
UACC-62
  GI50: 13.4 µM (inactive)
UO-31
  GI50: 2.36 µM (inactive)
NCI-H522
  GI50: 1.97 µM (inactive)
BT-549
  GI50: 14.8 µM (inactive)
MDA-MB-435
  GI50: 16.4 µM (inactive)
SF-295
  GI50: 18.5 µM (inactive)
UACC-257
  GI50: 16.8 µM (inactive)
KM12
  GI50: 12.4 µM (inactive)
SK-MEL-2
  GI50: 19.7 µM (inactive)
M14
  GI50: 15.5 µM (inactive)
RXF 393
  GI50: 10.6 µM (inactive)
786-0
  GI50: 1.93 µM (inactive)
HCC 2998
  GI50: 14.3 µM (inactive)
HCT-15
  GI50: 12.9 µM
LOX IMVI
  GI50: 3.48 µM (inactive)
NCI-H23
  GI50: 18.4 µM (inactive)
TK-10
  GI50: 3.37 µM (inactive)
SF-539
  GI50: 8.69 µM (inactive)
MDA-MB-231
  GI50: 15.4 µM (inactive)
HOP-92
  GI50: 1.85 µM (inactive)
A498
  GI50: 19.1 µM (inactive)
EKVX
  GI50: 7.85 µM (inactive)
OVCAR-8
  GI50: 18.7 µM (inactive)
SW-620
  GI50: 1.99 µM (inactive)
Hs-578T
  GI50: 14.6 µM (inactive)
PC-3
  GI50: 17.7 µM (inactive)
MCF7
  GI50: 2.13 µM (inactive)
SN12C
  GI50: 14.7 µM (inactive)
ACHN
  GI50: 1.75 µM (inactive)
SK-MEL-5
  GI50: 13 µM (inactive)
SK-MEL-28
  GI50: 13.6 µM (inactive)

## CCOC(=O)C1CC(O)C(=O)N1C (stereo not given)
SK-OV-3
  GI50: > 100 µM (inactive)
HCT-116
  GI50: > 100 µM (inactive)
MDA-N
  GI50: > 100 µM (inactive)
NCI-H226
  GI50: > 100 µM (inactive)
HT-29
  GI50: > 100 µM (inactive)
A549
  GI50: > 100 µM (inactive)
RPMI-8226
  GI50: > 100 µM (inactive)
HL-60
  GI50: > 100 µM (inactive)
U-251
  GI50: > 100 µM (inactive)
COLO 205
  GI50: > 100 µM (inactive)
HOP-62
  GI50: > 100 µM (inactive)
SNB-19
  GI50: > 100 µM (inactive)
OVCAR-4
  GI50: > 100 µM (inactive)
CCRF-CEM
  GI50: > 100 µM (inactive)
MOLT-4
  GI50: > 100 µM (inactive)
UACC-62
  GI50: > 100 µM (inactive)
IGROV-1
  GI50: > 100 µM (inactive)
UO-31
  GI50: > 100 µM (inactive)
BT-549
  GI50: > 100 µM (inactive)
MDA-MB-435
  GI50: > 100 µM (inactive)
OVCAR-3
  GI50: > 100 µM (inactive)
SF-295
  GI50: > 100 µM (inactive)
UACC-257
  GI50: > 100 µM (inactive)
SK-MEL-2
  GI50: > 100 µM (inactive)
M14
  GI50: > 100 µM (inactive)
RXF 393
  GI50: > 100 µM (inactive)
786-0
  GI50: > 100 µM (inactive)
HCC 2998
  GI50: > 100 µM (inactive)
HCT-15
  GI50: > 100 µM
LOX IMVI
  GI50: > 100 µM (inactive)
NCI-H23
  GI50: > 100 µM (inactive)
TK-10
  GI50: > 100 µM (inactive)
SF-539
  GI50: > 100 µM (inactive)
SR
  GI50: > 100 µM (inactive)
MDA-MB-231
  GI50: > 100 µM (inactive)
T47D
  GI50: > 100 µM (inactive)
HOP-92
  GI50: > 100 µM (inactive)
EKVX
  GI50: > 100 µM (inactive)
PC-3
  GI50: > 100 µM (inactive)
DU-145
  GI50: > 100 µM (inactive)
MCF7
  GI50: > 100 µM (inactive)
SN12C
  GI50: > 100 µM (inactive)
ACHN
  GI50: > 100 µM (inactive)
CAKI-1
  GI50: > 100 µM (inactive)
SK-MEL-5
  GI50: > 100 µM (inactive)
SK-MEL-28
  GI50: > 100 µM (inactive)
OVCAR-5
  GI50: > 100 µM (inactive)

## Cc1cc(S(=O)(=O)Nc2nc3ccsc3c(=O)n2N)c(S)cc1Cl
SK-OV-3
  GI50: > 100 µM (inactive)
HCT-116
  GI50: 94.8 µM (inactive)
MDA-N
  GI50: > 100 µM (inactive)
NCI-H226
  GI50: 34.6 µM (inactive)
HT-29
  GI50: > 100 µM (inactive)
A549
  GI50: > 100 µM (inactive)
RPMI-8226
  GI50: > 100 µM (inactive)
SNB-75
  GI50: > 100 µM (inactive)
HL-60
  GI50: > 100 µM (inactive)
U-251
  GI50: 57.1 µM (inactive)
COLO 205
  GI50: > 100 µM (inactive)
SF-268
  GI50: 42.2 µM (inactive)
HOP-62
  GI50: 39.9 µM (inactive)
Malme-3M
  GI50: 81.1 µM (inactive)
SNB-19
  GI50: 37.2 µM (inactive)
K562
  GI50: 86.9 µM (inactive)
OVCAR-4
  GI50: 68.1 µM (inactive)
CCRF-CEM
  GI50: 71.9 µM (inactive)
NCI/ADR-RES
  GI50: 85.3 µM (inactive)
MOLT-4
  GI50: 64.3 µM (inactive)
NCI-H460
  GI50: 53.2 µM (inactive)
UACC-62
  GI50: 38.7 µM (inactive)
IGROV-1
  GI50: > 100 µM (inactive)
NCI-H522
  GI50: 44 µM (inactive)
BT-549
  GI50: > 100 µM (inactive)
MDA-MB-435
  GI50: 83.8 µM (inactive)
OVCAR-3
  GI50: > 100 µM (inactive)
SF-295
  GI50: 31.3 µM (inactive)
UACC-257
  GI50: > 100 µM (inactive)
KM12
  GI50: 80.7 µM (inactive)
SK-MEL-2
  GI50: 76.2 µM (inactive)
M14
  GI50: 68.7 µM (inactive)
786-0
  GI50: > 100 µM (inactive)
HCC 2998
  GI50: > 100 µM (inactive)
HCT-15
  GI50: 50.7 µM
LOX IMVI
  GI50: 78.9 µM (inactive)
NCI-H23
  GI50: > 100 µM (inactive)
TK-10
  GI50: > 100 µM (inactive)
SF-539
  GI50: > 100 µM (inactive)
MDA-MB-231
  GI50: 70.1 µM (inactive)
EKVX
  GI50: > 100 µM (inactive)
OVCAR-8
  GI50: > 100 µM (inactive)
SW-620
  GI50: > 100 µM (inactive)
PC-3
  GI50: > 100 µM (inactive)
DU-145
  GI50: > 100 µM (inactive)
MCF7
  GI50: > 100 µM (inactive)
SN12C
  GI50: > 100 µM (inactive)
ACHN
  GI50: 56.9 µM (inactive)
CAKI-1
  GI50: > 100 µM (inactive)
SK-MEL-5
  GI50: 56.9 µM (inactive)
SK-MEL-28
  GI50: > 100 µM (inactive)
OVCAR-5
  GI50: 35.2 µM (inactive)

## CCOC(=O)CCCOc1cc(-c2ccccc2F)nc2cc3c(cc12)OCO3
SK-OV-3
  GI50: > 100 µM (inactive)
MDA-N
  GI50: 88.7 µM (inactive)
HT-29
  GI50: 43.7 µM (inactive)
A549
  GI50: > 100 µM (inactive)
RPMI-8226
  GI50: 28.4 µM (inactive)
SNB-75
  GI50: 40.9 µM (inactive)
U-251
  GI50: 95.9 µM (inactive)
COLO 205
  GI50: > 100 µM (inactive)
HOP-62
  GI50: > 100 µM (inactive)
Malme-3M
  GI50: 74.1 µM (inactive)
OVCAR-4
  GI50: 3.71 µM (inactive)
CCRF-CEM
  GI50: 30.8 µM (inactive)
NCI/ADR-RES
  GI50: 46.8 µM (inactive)
MOLT-4
  GI50: 27.3 µM (inactive)
UACC-62
  GI50: 84.9 µM (inactive)
IGROV-1
  GI50: 24.6 µM (inactive)
BT-549
  GI50: 19.9 µM (inactive)
MDA-MB-435
  GI50: 53.6 µM (inactive)
UACC-257
  GI50: 70.3 µM (inactive)
KM12
  GI50: 61.9 µM (inactive)
SK-MEL-2
  GI50: > 100 µM (inactive)
M14
  GI50: 53 µM (inactive)
786-0
  GI50: > 100 µM (inactive)
HCC 2998
  GI50: 5.82 µM (inactive)
HCT-15
  GI50: 3.29 µM
LOX IMVI
  GI50: > 100 µM (inactive)
NCI-H23
  GI50: 46.6 µM (inactive)
TK-10
  GI50: > 100 µM (inactive)
SF-539
  GI50: > 100 µM (inactive)
SR
  GI50: 32 µM (inactive)
MDA-MB-231
  GI50: > 100 µM (inactive)
T47D
  GI50: 25.5 µM (inactive)
HOP-92
  GI50: > 100 µM (inactive)
EKVX
  GI50: 40.6 µM (inactive)
OVCAR-8
  GI50: > 100 µM (inactive)
SW-620
  GI50: > 100 µM (inactive)
PC-3
  GI50: 29.6 µM (inactive)
DU-145
  GI50: > 100 µM (inactive)
MCF7
  GI50: > 100 µM (inactive)
SN12C
  GI50: > 100 µM (inactive)
CAKI-1
  GI50: > 100 µM (inactive)
SK-MEL-5
  GI50: 57.7 µM (inactive)
SK-MEL-28
  GI50: 73.5 µM (inactive)
OVCAR-5
  GI50: > 100 µM (inactive)
